Reference: patent US7018796B2, “Preincubation assay methods” (Shionogi & Co., Ltd., priority 2000, dated 2006)

Molecular target: T1, HCV RNA-dependent RNA polymerase (Hepatitis C virus genotype 1a, UniProt P27958)
T1 construct: HCV RNA-dependent RNA polymerase is encoded in the NS5B (nonstructural protein 5B) region of HCV; made in house; host or cells: insect cells or E. coli
Test: DIG-UTP assay without radioisotope-labeled substrate, with pre-incubation (Example 2)
Type: biochemical
Conditions: pre-incubation 25° C. 1 hr, I-1 0.5 μg/ml, 3′-dUTP 0.7 μM, A 100 μg/ml, B 50 μg/ml, C 25 μg/ml
Method: In Example 1, ^3H-UTP, that is UTP labeled with tritium as radioisotope was used as substrate in the assay with pre-incubation using HCV RNA-dependent RNA polymerase. Herein, digoxigenin-labeled UTP (DIG-UTP) instead of ^3H-UTP was used as substrate in the assay with pre-incubation using HCV RNA-dependent RNA polymerase. • 1) Streptavidin (1 mg/ml) was dissolved in the phosphate buffer saline (PBS) containing NaCl (0.137 M), KCl (2.68 mM), potassium dihydrogenphosphate (1.47 mM) and sodium phosphate (8.06 mM). • 2) The streptavidin solution was diluted 25-fold with the carbonate buffer containing sodium carbonate (0.9 M) and sodium hydrogencarbonate (0.1 M). • 3) The 25-fold streptavidin solution (50 μl/well) was transferred to a well of 96 wells-microtiter palate with flat bottom for immunoassay and then the plate was kept at 4° C. over night. • 4) After the 96 wells-microtiter plate was coated with streptavidin, the well was washed twice by adding, mixing and draining PBS (200 μl/well). • 5) The skim milk dissolved with PBS (1%, 300 μl) was transferred into each well and was kept at room temperature for 30 min. • 6) After the plate was washed once with PBS (200 μl/well), the well was filled with PBS (300 μl/well) and then the plate was stored at 4° C. • 7) After the PBS was drained from the streptavidin-coated plate stored under the condition described in 6), the well was washed once with PBS (200 μl/well) and was filled with de-ionized water (300 μl/well). • 8) The buffer I (10 μl) containing Tris-HCl (100 mM, pH 7.5), MgCl2 (25 mM), dithiothreitol (5 mM), KCl (125 mM) and ethylenediaminetetraacetic acid (5 mM) was transferred to a polypropylene tube and then poly(A) solution (6.25 μg/ml, 10 μl), biotin-labeled oligo(U)12 solution (3 μg/ml, 10 μl), water (10 μl) and HCV RNA-dependent RNA polymerase solution (10 μl) were added into the tube and mixed calmly. • 9) De-ionized water was drained from the plate described in 7), and the solution (50 μl/well) at once after the mixing described in 8) was transferred to each well. After mixing by a plate mixer, the solution was pre-incubated at 25° C. for 1 hr. • 10) On the other hand, the buffer I (10 μl) was transferred into another tube, and UTP (1 μM, 10 μl), DIG-UTP (300 μM, 1 μl), water (24 μl) and a test compound dissolved with dimethyl sulfoxide or water (5 μl) were added to the tube and mixed calmly. Concentrations of the compounds used were as follows.
• 11) The mixed solution (50 μl/well) described in 10) was transferred into each well after the pre-incubation described in 9), mixed by a plate mixer and then incubated at 25° C. for 1 hr. • 12) When the enzyme reaction was in 1 hr, the enzyme reaction was stopped by adding ethylenediaminetetraacetic acid (0.1 M, 50 μl/well). • 13) The plate was washed twice with PBS (200 μl/well) after end of the enzyme reaction. • 14) Next, alkaline phosphatase-labeled anti-DIG antibody (3 U/ml, 100 μl/well) diluted 250-fold with PBS containing skim milk (0.5%) was transferred each well. […] The substrate solution was transferred into each well of the plate, mixed by a plate mixer and then incubated at 25° C. for 1 hr until the color appears in the solution. • 17) The plate was set on a plate reader and the absorbance was measured at 405 nm. • 18) The inhibitory rate was calculated from the optical density (unit; OD) measured as follows. […]

T1 sequence (P27958 2421-3011): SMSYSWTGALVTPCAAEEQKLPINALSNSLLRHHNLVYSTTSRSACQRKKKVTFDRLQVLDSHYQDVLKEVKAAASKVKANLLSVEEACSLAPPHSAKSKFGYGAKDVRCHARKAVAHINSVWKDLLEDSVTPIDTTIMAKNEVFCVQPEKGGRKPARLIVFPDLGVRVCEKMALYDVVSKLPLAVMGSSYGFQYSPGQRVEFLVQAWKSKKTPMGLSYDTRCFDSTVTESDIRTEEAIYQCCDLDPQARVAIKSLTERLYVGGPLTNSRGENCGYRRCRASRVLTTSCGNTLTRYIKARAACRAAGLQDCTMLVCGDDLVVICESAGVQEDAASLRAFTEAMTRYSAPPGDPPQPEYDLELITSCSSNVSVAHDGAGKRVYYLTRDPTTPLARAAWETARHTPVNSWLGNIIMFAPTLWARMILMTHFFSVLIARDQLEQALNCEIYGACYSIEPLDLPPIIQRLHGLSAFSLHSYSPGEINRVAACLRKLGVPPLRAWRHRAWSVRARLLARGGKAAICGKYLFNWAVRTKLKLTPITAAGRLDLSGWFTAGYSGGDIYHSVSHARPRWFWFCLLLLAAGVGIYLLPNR

Row | Compound | Inhibitory rate, treatment of pre-incubation + | inhibition at 0.5 µg/mL (read-out: Inhibitory rate, treatment of pre-incubation +)
1 | O=c1ccn([C@@H]2O[C@H](COP(=O)(O)OP(=O)(O)OP(=O)(O)O)C[C@H]2O)c(=O)[nH]1 [3′-dUTP, 3′-deoxyuridine triphosphate] | 50% | 
2 | Cc1oc(-c2ccccc2)nc1CCOc1ccc(C=C2C(=O)NC(=O)NC2=O)cc1 [Compound A] | 24% | 
3 | O=C1NC(=O)C(=Cc2ccc(OCCc3cccc4ccccc34)cc2)C(=O)N1 [Compound B] | 20% | 
4 | CCCCC1=N/C(=C\c2ccccc2OCC(=O)O)C(=O)N1Cc1ccc(-c2ccccc2-c2nnn[nH]2)cc1 [Compound C] | 15% | 
5 | O=C(O)/C(O)=C/C(=O)c1cccc(O)c1 [Compound I-1] |  | 52%
